In PubChem BioAssay AID504754 (National Center for Advancing Translational Sciences (NCATS), 2011):

System: mouse liver microsomes, LC-MS/MS half-life
Test: Inhibitors of Cruzain: Metabolic Stability Theory
Details: at 1 µM; stronger effect = higher value
Description: Chagas Disease is a neglected tropical disease that affects over 16 million people in Latin America. The cysteine protease cruzain is essential for the survival Trypanosoma cruzi, the parasitic agent responsible for Chagas disease. Potential intervention for T. cruzi includes the inhibition of cruzain. This bioassay will summarize the ongoing development of small molecule cruzain inhbitiors. Currently, a screen of ~200k compounds and through extensive follow-up work a probe was identified. To further characterize the probe, it was tested in in vitro ADME assays. Mouse liver microsomes are created through broken up endoplasmic reticulum from mouse liver. These liver microsomes contain many drug metabolizing enzymes, such as Cytochome P-450s and flavin-containing monooxygenases. Because metabolism is major way of drug clearance, this is an important result. NIH Chemical Genomics Center [NCGC] NIH Molecular Libraries Probe Production Centers Network [MLPCN] MLSCN Grant: DA024891-01 PI Name: Dr. Brian Shoichet; University of California, San Francisco
1uM of compound in incubated in mouse liver microsome; the reference compound is ketanserin. Compounds are incubated at 37 degrees C for different time periods: 0, 5, 15, 30, 45, and 60 minutes. Samples are analyzed with LC-MS/MS.

half-life: 8 min
Compound: Cc1ccc(OCCn2c(CCNC(=O)C3CCCCC3)nc3ccccc32)cc1
